Bridge positions count the residues as written; N and C are the ends. Square brackets hold non-standard residues; d marks the D form. Peptide text beside a SMILES is read from it.
Legend:
T84 cells = assay: Quantitative RT-PCR for transcripts in T84 cells; format: cell-based, human
DSS-induced colitis = DSS-induced colitis in BDF-1 mice; format: in vivo, mouse
Description: To evaluate the efficacy of plecanatide in DSS induced colitis model, 48 BDF-1 mice were divided into 8 treatment groups (6 mice/group). One group was not exposed to DSS (untreated control) and groups 2-8 were treated with 5% DSS in the drinking water on day 0. Plecanatide or SP-333 solutions formulated in 0.1M phosphate buffer (pH 7) was administered by oral gavage, once a day at 0.005, 0.05, 0.5, 2.5 and 5 mg/kg, from study day −1 (i.e. prior to initiation of DSS treatment) through day 6 for SP-333 or day 7 for plecanatide. DSS treatment was initiated on day 0 for groups 2-8 until the end of the study. Sulfasalazine (80 mg/kg) or 5-ASA (100 mg/kg) was used as positive control and was administered daily. Mice were sacrificed on day 7. The large intestine was removed and weighed. Distal section of the large intestine was collected and fixed as described above.
Disease activity index (DAI) was calculated by scoring in-life parameters starting from day −1 until the end of the study. Once daily, all mice were weighed and assessed for stool consistency, and the presence of overt blood in the stool or around the anus essentially similar to that reported earlier. Colitis severity was assessed by histopathological analyses of H&E stained tissue sections (Hegazi et al., 2005; Dave et al., 2009) employing the following criteria: (score 0) normal appearing crypts; (score 1) abnormal crypt pathology without ulceration; (score 2) depleted crypts with ulceration; (score 3) 20-50% depleted crypts and increased ulceration; (score 4) >50% depleted crypts with substantial ulceration and (score 5) totally ulcerated/inflamed colon with no crypts remaining. All slides were scored in a blinded manner. Colitis severity in TCRα−/− model was scored as previously described^25. All slides were scored in a blinded manner. Disease activity index (DAI) was calculated by assessing body weight, stool consistency, and the presence of overt blood in stools or around the anus, essentially similar to that reported earlier (Hamamoto et al., 1999).

[1] = SP-333 0.005 to 5 mg/kg oral daily, vs DSS alone or DSS plus vehicle

In the case of CC(C)C[C@@H]1NC(=O)[C@H](CCC(=O)O)NC(=O)[C@@H](NC(=O)[C@H](CCC(=O)O)NC(=O)[C@H](CC(=O)O)NC(=O)[C@H](N)CC(N)=O)CSSC[C@@H]2NC(=O)[C@H](C)NC(=O)[C@H](C(C)C)NC(=O)[C@H](CC(N)=O)NC(=O)[C@H](C(C)C)NC(=O)[C@H](CSSC[C@@H](C(=O)N[C@H](CC(C)C)C(=O)O)NC(=O)CNC(=O)[C@H]([C@@H](C)O)NC2=O)NC1=O [SP-333, dAsn^1-Asp^2-Glu^3-Cys^4-Glu^5-Leu^6-Cys^7-Val^8-Asn^9-Val^10-Ala^11-Cys^12-Thr^13-Gly^14-Cys^15-dLeu^16] (H-[dN]DECELCVNVACTGC[dL]-OH; disulfide 4-12, 7-15; N-terminus and C-terminus assumed), the “transcripts of cell division cycle 25a (putative c-Myc target gene)” value (T84 cells) is reported as “reduced”, the “transcripts of cyclin D1 (putative c-Myc target gene)” value (T84 cells) is reported as “reduced” and the “transcripts of p53 (putative c-Myc target gene)” value (T84 cells) is reported as “reduced”. The “Expression of Protein Kinase G I and II Transcripts” value (T84 cells; FIG. 15) was “enhanced”, the “decrease in Cyclin D1 expression” value (T84 cells; FIG. 17) was 58% and the “decrease in Survivin expression” value (T84 cells; FIG. 17) was 50%. For the same compound, the “decrease in c-Myc expression” value (T84 cells; FIG. 17) was 92%, the “expression of β-Catenin” value (T84 cells; FIG. 17) was “no effect” and the “decrease in c-Src expression” value (T84 cells; compared to untreated cells, FIG. 16) was 52%. For the same compound, the histopathology score (DSS-induced colitis; DSS+SP-333 0.005 mg/kg, representative image FIG. 10C (DSS alone 4)) was 1, the histopathology score (DSS-induced colitis; DSS+SP-333 0.05 mg/kg, representative image FIG. 10D) was 2 and the histopathology score (DSS-induced colitis; DSS+SP-333 0.5 mg/kg, representative image FIG. 10E) was 2. The “amelioration of colitis compared with 5-ASA” value (DSS-induced colitis; SP-333 0.005 mg/kg oral) was “as effective as 5-ASA (100 mg/kg)”, the DAI (DSS-induced colitis; SP-333 0.05 mg/kg oral, vs DSS vehicle control, p=0.041) was “significant reduction” and the “mean DAI scores” value (DSS-induced colitis; [1]) was “lower”. The “mean scores of colitis severity” value (DSS-induced colitis; [1]) was “lower” and the “histological evaluation of colon tissues (crypts)” value (DSS-induced colitis; SP-333 treatment groups) was “minimal loss of crypts with very low distortions in crypt morphology”.

— patent US20160235807A1, “AGONISTS OF GUANYLATE CYCLASE USEFUL FOR DOWNREGULATION OF PRO-INFLAMMATORY CYTOKINES” (SYNERGY PHARMACEUTICALS, INC., priority 2013, published 2016)
